Patent US9944607B2, “Thiohydantoin derivatives and uses thereof” (Whitehead Institute for Biomedical Research, priority 2012, dated 2018)

Experiments:
Candida albicans CaCi-2 = assay: Primary assay: C. albicans CaCi-2 growth inhibition (Alamar Blue); assay type: cell-based
Candida albicans CaCi-17 = assay: Primary assay: C. albicans CaCi-17 growth inhibition (Alamar Blue); assay type: cell-based; details: Candida albicans, CACI17, Tables 9, 10, 12; AID 623897; read-out: C. albicans CaCi-17 growth inhibition IC50
[1] = tested on: NIH-3T3 mammalian fibroblasts; assay: Counterscreen mammalian cell toxicity assay (Alamar Blue); assay type: cell-based, murine; details: Mus musculus, NIH3T3, Tables 9, 10, 12; AID 602394; read-out: Murine 3T3 fibroblasts growth inhibition (fibroblast toxicity) IC50
Procedure, shortened: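 Quiescent NIH-3T3 fibroblasts, cultured overnight, exposed to 100 nL pinned compound for 48 h at 37° C, 5% CO2. Alamar Blue added to 1:200 final, 2-3 h further incubation; fluorescence (RFU) read as relative cell growth.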

[2] = Plasma stability, human plasma; assay type: in vitro ADME; details: 37° C., 5 μM
Method: (§1) Plasma stability was determined at 37° C. at 5 hours in both human and mouse plasma. Each compound was prepared in duplicate at 5 μM in plasma diluted 50/50 (v/v) with PBS pH 7.4 (0.95% acetonitrile, 0.05% DMSO). Compounds were incubated at 37° C. for 5 hours with a 250-rpm orbital shake with time points taken at 0 hours and 5 hours.

[3] = Plasma stability, mouse plasma; assay type: in vitro ADME; details: 37° C., 5 μM
Method: as §1

[4] = Plasma protein binding by equilibrium dialysis, human plasma; assay type: in vitro ADME; details: pH 7.4, 37° C., read-out: Plasma protein binding (% bound), Human (converted)
Method: (§2) Plasma protein binding was determined by equilibrium dialysis using the Rapid Equilibrium Dialysis (RED) device (Pierce Biotechnology, Rockford, Ill.) for both human and mouse plasma. Each compound was prepared in duplicate at 5 μM in plasma (0.95% acetonitrile, 0.05% DMSO) and added to one side of the membrane (200 μL) with PBS pH 7.4 added to the other side (350 μL). Compounds were incubated at 37° C. for 5 hours with a 250-rpm orbital shake.

[5] = Plasma protein binding by equilibrium dialysis, mouse plasma; assay type: in vitro ADME; details: pH 7.4, murine plasma, 37° C., read-out: Plasma protein binding (% bound), Murine
Method: as §2

mitochondrial function = details: FIG. 1 legend, known inhibitors; cited from earlier work

Compound	IC50 (Candida albicans CaCi-2; Candida albicans, CACI2, Tables 9, 10, 12, AID 623899, read-out: C. albicans CaCi-2 growth inhibition IC50)	IC50 (Candida albicans CaCi-17)	IC50 [1]	Plasma stability (% remaining after 5 hours), Human [2]	Plasma stability (% remaining after 5 hours), Murine [3]	Activity against C. albicans (Candida albicans CaCi-2; CaCi-2, or both test strains (CaCi-2, CaCi-17) where the sentence names none)	fraction unbound at 5 h, 5 μM [4]	fraction unbound at 5 h, 5 μM [5]	Inhibition of mitochondrial function (in words) (mitochondrial function)
CCOC(=O)N1C(=O)C2(CCCCC2)N(c2ccc(C)cc2)C1=S [CID 3889161]	0.3 µM	8.5 µM	> 26 µM	<1.0%	<1.0%				
Cc1ccc(N2C(=S)N(C)C(=O)C23CCCCC3)cc1 [CID 56604835]				95.7%	96.6%	no activity	0.014	0.001	
Antimycin									potent, but non-selective
